The values below come from US20240043528A1, “NANOBODY-OGA FUSIONS AND USES THEREOF” (President and Fellows of Harvard College, priority 2020, published 2024).

Entries after “also recorded” stand apart in the source; their conditions may differ.

What all share (assay type): cell-based, human
In one assay the test system is global O-GlcNAcylation. The assay is described as follows: Global O-GlcNAcylation level in whole cell lysate, anti-O-GlcNAc (RL2) immunoblot. As to conditions: HEK 293T whole cell lysate, OSMI-4b 25 μM for 30 h. The method, then: After 36-48 h of transfection, cells were harvested and washed with PBS once. Cells were lysed with M-PER lysis buffer containing 1× protease inhibitor cocktail and 10 μM Thiamet-G unless otherwise noted. Protein concentrations were determined by the BCA assay kit (G-Biosciences, 786) on a multi-mode microplate reader FilterMax F3 (Molecular Devices LLC, Sunnyvale, CA).
For immunoblotting analysis, proteins were transferred to a nitrocellulose membrane using iBlot (Thermo Scientific). Membranes were blocked with Tris buffered saline containing 0.1% Tween-20 and 5% BSA and incubated with the primary antibodies (1:1000 dilution) and the secondary antibodies (1:10,000 dilution) sequentially. Immunoblot images were captured by Azure Imager C600. Analysis of immunoblots was conducted with Fiji ImageJ. All IR fluorescence western blot images are converted into grayscale images by Fiji ImageJ. The unsaturated exposure of immunoblot images was used for quantification with the appropriate loading controls as standards. Statistical analysis of the data was performed with Prism 8, using data from at least three independent experiments.
(In western blotting, separated proteins are transferred to a membrane and probed.)

In the next assay the test system is c-Fos-Ubc-Flag-EPEA. The assay is described as follows: Deglycosylation of c-Fos-Ubc-Flag-EPEA (anti-EPEA enrichment, anti-O-GlcNAc immunoblot). As to conditions: HEK 293T cells. The procedure:
For immunoprecipitation of proteins with the C-terminal EPEA tag, cell lysates with equal amounts of protein were diluted with PBS and incubated with C-tag affinity matrix (Thermo Scientific) for 1 h at room temperature, with end-to-end rotation, following the manufacturer's instructions. After washing three times with PBS buffer, the enriched proteins were eluted with SDS sample buffer and subjected to SDS-PAGE.
For immunoblotting analysis, proteins were transferred to a nitrocellulose membrane using iBlot (Thermo Scientific). […] All IR fluorescence western blot images are converted into grayscale images by Fiji ImageJ. The unsaturated exposure of immunoblot images was used for quantification with the appropriate loading controls as standards. […]
The ability of nUbc-split OGA to selectively remove an O-GlcNAc modification from Ubc-tagged c-Fos was examined. c-Fos is a core component of the AP-1 transcription factor complex, which will dimerize with c-Jun and drive downstream transcription (Hess, J., Angel, P. & Schorpp-Kistner, M. AP-1 subunits: quarrel and harmony among siblings. J. Cell Sci. 2004, 117, 5965-73). […] The O-GlcNAc modification level was evaluated by immunoblotting with an anti-O-GlcNAc antibody (FIG. 4C). Ratios were quantified from the protein level and O-GlcNAc level.

The subject of assay [1] is AP-1 transcriptional activity. The assay is described as follows: AP-1 responsive luciferase reporter assay in c-Fos-Ubc co-transfected HEK 293T cells. As to conditions: c-Fos-Ubc-Flag-EPEA co-transfected HEK 293T cells, 48 h; OSMI-4b 25 μM. The procedure:
For luciferase assay in the OGT inhibition experiment, HEK 293T cells co-transfected with c-Fos-Ubc-Flag-EPEA plasmid and AP-1 responsive luciferase reporter were treated with either DMSO or 25 μM OSMI-4b for 48 h before luciferase activity detection. […] Luciferase reporter assays were performed using Luciferase Assay System (Promega, E1500) according to manufacturer's protocols. At least three independent biological replicates were run using this assay.
A general note: A reporter such as luciferase makes a cellular process visible.

The next assay concerns endogenous c-Jun. The assay is described as follows: O-GlcNAcylation status of endogenous c-Jun (chemoenzymatic labeling, Biotin-IP). As to conditions: HEK 293T cells expressing c-Fos-Ubc. The method, then: Purification of GalT1 (Y289L) enzyme and labeling of O-GlcNAcylated proteins with GalNAz were performed according to the procedure of Hsieh-Wilson and co-workers (Thompson, J. W., Griffin, M. E. & Hsieh-Wilson, L. C. Methods for the Detection, Study, and Dynamic Profiling of O-GlcNAc Glycosylation. Methods Enzymol. 2018, 598, 101-135). Briefly, cell samples in 6-well plates or 15-cm dishes were harvested and washed by PBS once. The lysis buffer (PBS with 2% SDS) was added into cell pellets and heated for 5 min at 95° C., followed by the sonication to sheer DNA. Protein concentrations were determined by BCA assay. Cell lysates were reduced and alkylated with 25 mM DTT at 95° C. for 5 min and 50 mM iodoacetamide at room temperature for 1 h respectively. Proteins were precipitated by the methanol/chloroform solution (aqueous phase:CH3OH:CHCl3=4:4:1) and resuspended in 1% SDS, 20 mM HEPES (pH 7.9) buffer with a concentration of 3.75 mg/mL. For 150 μg proteins, H2O (49 μL), 2.5×GalT labeling buffer (80 μL, final concentrations: 50 mM NaCl, 20 mM HEPES, 2% NP-40, pH 7.9), 100 mM MnCl2 (11 μL), 500 μM UDP-GalNAz (10 μL), 2 mg/mL GalT1 (Y289L) (10 μL) were added into cell lysates orderly. The reaction was gently rotated at 4° C. for at least 20 h and the proteins were precipitated as described above. The proteins were resuspended with 1% SDS, PBS for the further click chemistry. […]

In another assay the test system is GFP-c-Jun. Put plainly: Cycloheximide (CHX) chase of GFP-c-Jun stability. As to conditions: 50 μM CHX for up to 12 h, HEK 293T cells. The method, then:
HEK 293T cells were transiently transfected with indicated plasmids and treated with DMSO, or Ac45SGlcNAc, or Thiamet-G at the same time if needed. 36-48 h after the transfection, cells were incubated with 50 μM CHX for up to 12 h. At the indicated time points, cells were harvested and lysed with M-PER lysis buffer. Protein expression and global O-GlcNAc level were determined by immunoblot assays. GAPDH protein level was used as the internal loading control.

In the case of OSMI-4b, the “global O-GlcNAcylation level” value is reported as “dramatic reduction of global O-GlcNAcylation level” in the assay on global O-GlcNAcylation and “dramatic reduction” in the assay with global O-GlcNAcylation (listed as OSMI-4b9). Also, in the assay on c-Fos-Ubc-Flag-EPEA, the “O-GlcNAc modification level on c-Fos-Ubc” value is given as “deglycosylated”. Moreover, the “AP-1 transcriptional activity (luciferase)” value in assay [1] is listed as “significantly upregulated”. Further, in the assay with endogenous c-Jun, the “O-GlcNAc modification on endogenous c-Jun” value is reported as “reduced O-GlcNAc modification”.

On to `CCN=C1N[C@@H]2[C@@H](O)[C@H](O)[C@@H](CO)O[C@@H]2S1` [Thiamet-G], for which the “stability / degradation of GFP-c-Jun” value in the assay on GFP-c-Jun is on record as “attenuated; also recorded: enhanced”.
